# What was measured:
# A. baumannii MsbA [1] = molecular target: T1, A. baumannii MsbA (Acinetobacter baumannii, UniProt A0A0B9X4I2); experiment: ATPase activity assay; format: biochemical; conditions: stimulation of ATPase activity; allosteric, central substrate (LPS) binding site
# T1 sequence (A0A0B9X4I2 1-575): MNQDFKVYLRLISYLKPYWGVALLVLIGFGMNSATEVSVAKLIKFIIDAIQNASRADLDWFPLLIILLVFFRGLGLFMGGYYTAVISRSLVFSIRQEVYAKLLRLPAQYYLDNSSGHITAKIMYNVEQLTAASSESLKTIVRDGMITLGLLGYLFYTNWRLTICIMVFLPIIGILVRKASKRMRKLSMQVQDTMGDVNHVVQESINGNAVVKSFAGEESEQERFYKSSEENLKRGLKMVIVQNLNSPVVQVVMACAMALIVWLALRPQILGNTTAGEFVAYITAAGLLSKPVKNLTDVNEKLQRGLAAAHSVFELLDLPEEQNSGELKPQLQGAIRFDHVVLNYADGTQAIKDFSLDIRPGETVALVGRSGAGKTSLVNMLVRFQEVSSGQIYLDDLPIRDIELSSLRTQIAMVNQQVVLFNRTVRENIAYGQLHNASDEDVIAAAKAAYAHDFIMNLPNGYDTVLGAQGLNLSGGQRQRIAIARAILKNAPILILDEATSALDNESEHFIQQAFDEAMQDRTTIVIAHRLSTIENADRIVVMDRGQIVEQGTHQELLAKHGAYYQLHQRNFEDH
# A. baumannii MsbA [2] = molecular target: T1, A. baumannii MsbA; conditions: POPG nanodiscs, no TBT1
Compound,EC50 (A. baumannii MsbA [1]),"ATPase activity, Michaelis-Menten kinetics (A. baumannii MsbA [2])"
O=C(Nc1sc2c(c1C(=O)O)CCCC2)c1ccc(Cl)cc1 [TBT1],~13 µM,
Nc1ncnc2c1ncn2[C@@H]1O[C@H](COP(=O)(O)OP(=O)(O)OP(=O)(O)O)[C@@H](O)[C@H]1O [ATP],,"ATPase activity of A. baumannii MsbA in nanodiscs, measured at varying ATP and TBT1 concentrations"
